From patent US20240228493A1, “LRRK2 INHIBITORS AND USES THEREOF” (NEURON23, ICN., priority 2022, published 2024)

Assays:
[1] = system: Caco-2 cells; test: Caco-2 bidirectional permeability; assay type: in vitro ADME; settings: for Caco-2 ER: Efflux Ratio=Papp(BA)/Papp(AB); for Caco-2 A2B (10^−6 cm/s): apical to basolateral; for Caco-2 A2B (10^−6 cm/s) / Caco-2 B2A (10^−6 cm/s): 2 hours, pH 7.4; for Caco-2 B2A (10^−6 cm/s): basolateral to apical
Description: The compounds disclosed herein were tested in vitro on CaCo2 cell penetration according to the following procedures.
Caco-2 cells purchased from ATCC were seeded onto […] (PET) in 96-well Corning Insert plates at 1×10^5 cells/cm^2. The media were refreshed every 4 to 5 days until the 21st to 28th day for confluent cell monolayer formation.
Experiments were run in duplicate using a HBSS transport buffer containing 10 mM HEPES at pH 7.4. The test article TEST COMPOUND was tested bi-directionally at […] concentrations, the control compound digoxin was tested bi-directionally at 10 μM, and nadolol and metoprolol were tested at 2.0 μM in the A to B direction. Final DMSO concentrations were adjusted to less than 1%. The plates were incubated for 2 hours in a CO2 incubator at 37±1° C. with 5% CO2 at saturated humidity without shaking. Following incubation, samples were mixed with acetonitrile containing internal standard and centrifuged at 3200×g for 10 minutes. Then 200 μL of supernatant was taken from all samples. For TEST COMPOUND and digoxin, the supernatant was diluted with 200 μL of ultra-pure water and for nadolol and metoprolol, the supernatant was diluted with 600 μL of ultra-pure water. All samples were analyzed by LC-MS/MS. Concentrations of TEST COMPOUND and control compounds were determined in starting solutions, donor well solutions, and receiver well solutions using peak area ratios (PAR) of analyte to internal standard. After the transport assay, a lucifer yellow rejection assay was run to determine the Caco-2 cell monolayer integrity.
The apparent permeability (Papp), the % recovery and the efflux ratio were calculated as follows:
Papp=(dCr/dt)×Vr/(A×C0) 1.
Efflux Ratio=Papp(BA)/Papp(AB) 3. • Where: • dCr/dt is the slope of the cumulative concentration in the receiver compartment versus time (mM/s). • Vr and Vd is the volume in the receiver and donor compartments (0.075 mL on the apical side, 0.25 mL on the basolateral side), respectively. • A is the surface area of the cell monolayer (0.0804 cm^2). • C0 is the measured donor concentrations (μM) at the beginning of the experiment. • Cd and Cr are the final measured concentrations in the donor and receiver compartments, respectively.

[2] = system: human hepatocyte; test: Human hepatocyte stability, predicted hepatic clearance (h-Hept CL predict); assay type: in vitro ADME; settings: human hepatocytes, 0.5×10^6 cells/mL, 1 μM, values without asterisk
Description: The compounds disclosed herein were tested in vitro on human hepatocyte for in vitro h-Hept CL predict according to the following procedures. • 1. Compound sock solutions were prepared by dissolving test compound and positive control in dimethyl sulfoxide (DMSO) at a concentration of 10 mM. Stock solutions were then diluted to 100 μM solutions by combining 198 μL of 50% acetonitrile/50% water with 2 μL of the 10 mM stock in separate conical tubes. • 2. Cryopreserved hepatocytes were prepared as follows: Incubation medium (William's E Medium supplemented with GlutaMAX) and hepatocyte thawing medium were placed in a 37° C. water bath and allowed to warm for at least 15 minutes prior to use. Cryopreserved hepatocytes were removed from storage, ensuring that vials remained at cryogenic temperatures until thawed. Cells were thawed by placing the vials in a 37° C. water bath and gently shaking the vials for 2 minutes. After thawing was completed, vials were sprayed with 70% ethanol and transferred to a biosafety cabinet. Hepatocytes were transferred into 50 mL conical tube containing thawing medium using wide-bore pipette tips. Tubes were placed into a centrifuge and spun at 100 g for 10 minutes. Then thawing medium was aspirated and hepatocytes were resuspended in enough incubation medium to yield ˜1.5×10^6 cells/mL. Cells were counted using acridine orange and propidium iodide (AO/PI) staining, and the viable cell density was determined. Cells were diluted with incubation medium to a working cell density of 0.5×10^6 viable cells/mL. • 3. To determine hepatocyte stability, 198 μL of hepatocytes were transferred into each well of a 96-well non-coated plate. Plates were placed in an incubator to allow the hepatocytes to warm for 10 minutes. • 4. The reaction was started by transferring 2 μL of the 100 μM test compound or positive control solution into respective wells of the 96-well non-coated plates. Plates were returned to the incubator until 25 μL aliquots of well contents were sampled at time points of 0, 15, 30, 60, 90 and 120 minutes. The aliquots were then mixed with 6 volumes (150 μL) of acetonitrile containing internal standard, IS (100 nM alprazolam, 200 nM caffeine and 100 nM tolbutamide) to terminate the reaction and vortexed for 5 minutes. After centrifuging the samples for 45 minutes at 3,220 g, aliquots of 100 μL of the supernatant were taken and diluted with 100 μL of ultra-pure water. The mixture was used for LC/MS/MS analysis. All incubations were performed in duplicate.
All calculations were carried out using Microsoft Excel. Peak area ratios (PAR) were determined from extracted ion chromatograms. The in vitro half-life (t1/2) of parent compound was determined by regression analysis of the percent parent disappearance vs. time curve as follows:
Conversion of the in vitro t1/2 (in minutes) into the in vitro intrinsic clearance (in vitro CLint, in μL/min/1×10^6 cells) was done using the following equation (mean of duplicate determinations): […]
The scaled-up intrinsic clearance (CLint, mL/min/kg), predicted hepatic clearance (CLH, mL/min/kg) and hepatic extraction ratio (ER) were calculated using the following equations:
CLint=(0.693/t1/2)*(1/(hepatocyte concentration (0.5*10^6 cells/mL)))*scaling factors (Table (A) Appendix Table 1)
CLHept-predict=(QH*Scaled-up CLint*fub)/(QH+Scaled-up CLint*fub)
ER=CLH/QH • Where: • V=incubation volume (0.2 mL) • N=number of hepatocytes per well (0.1*10^6 cells) • QH=hepatic blood flow (mL/min/kg) (Table (A) Appendix Table 1) • fub=fraction of unbound drug in plasma, assumed to be 1

[3] = biological target: T1, wt human LRRK2, catalytic site (Homo sapiens, UniProt Q5S007); test: TR-FRET LanthaScreen Tb Kinase Activity Assay, LRRK2 inhibition; assay type: biochemical; settings: 2 nM wt human LRRK2, 400 nM peptide, 38 μM ATP
T1 construct: wt human LRRK2, catalytic site, catalytic site (ThermoFisher/USA); purchased ThermoFisher
T1 sequence (Q5S007 1879-2138 limits assumed): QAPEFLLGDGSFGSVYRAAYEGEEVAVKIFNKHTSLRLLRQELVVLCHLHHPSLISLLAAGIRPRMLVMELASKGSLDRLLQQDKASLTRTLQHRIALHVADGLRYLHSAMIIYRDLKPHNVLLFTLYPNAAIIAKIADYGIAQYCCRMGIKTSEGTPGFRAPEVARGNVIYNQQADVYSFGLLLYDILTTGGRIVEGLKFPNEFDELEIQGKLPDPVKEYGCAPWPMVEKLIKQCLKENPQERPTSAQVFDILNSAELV
Description: The compounds disclosed herein were tested for their inhibitory effect on LRRK2 kinase according to the following procedures.
The protocol for basic TR-FRET LanthaScreen Tb Kinase Activity Assay inhibitor studies were as follows. LanthaScreen Kinase Activity Assays (ThermoFisher/USA) to evaluate inhibitors were performed by addition of 100 nL of test compound in corresponding DMSO dilutions/5 μL of kinase/fluorescein-ERM (LRRKtide) peptide mixture, Compound & kinase were pre-incubated for 15 minutes, then 5 μl of ATP into 384 well small volume plates. After incubation for 120 minutes at room temperature, the detection reagents containing Tb-anti-pLRRKtide antibody were added to monitor phosphorylation level of peptide. Then, after 60 min minutes incubation at room temperature plates were read in Envision. Data analysis of emission ratios was according to LanthaScreen Tb Kinase Activity Assay protocol.
Kinase and assay components were adjusted to final concentrations according to the kit protocol. For LRRK2: 2 nM wt human LRRK2, catalytic site, catalytic site (ThermoFisher/USA), 400 nM peptide, 38 μM ATP in 1× Kinase Buffer A. […]
Kinase and assay components were adjusted to final concentrations according to the kit protocol.

Row | Caco-2 ER [1] | Caco-2 B2A (10^−6 cm/s) [1] | IC50 [3] [nM] | Compound | Caco-2 A2B (10^−6 cm/s) [1] | hHep Cl (mL/min/kg) [2]
1 | L (L (Likely)”: ER≥2.5) | H (H (High permeability)”: A2B (B2A)>5) | < 1 | COC1(C#Cc2cc3c(cn2)NC(c2c(F)cccc2F)=Nc2c(C)n[nH]c2-3)CCOCC1 [Example 31, 8-(2,6-difluorophenyl)-13-[2-(4-methoxytetrahydropyran-4-y1)ethynyl]-5-methyl-3,4,7,9,12-pentazatricyclo[8.4.0.02,6]tetradeca-1(10),2(6),4,7,11,13-hexaene] | M (M (Moderate permeability)”: 1≤A2B (B2A)≤5) | I (I (Intermediate Cl)”: 6.3≤Hep Cl (mL/min/kg)≤14.7)
2 | L (L (Likely)”: ER≥2.5) | H (H (High permeability)”: A2B (B2A)>5) | < 1 | Cc1n[nH]c2c1N=C(c1c(F)cccc1F)Nc1c-2cc(N2CCC(O)CC2)nc1C [Example 40, 1-(5-(2,6-difluorophenyl)-3,7-dimethyl-1,6-dihydropyrazolo[4,3-d]pyrido[4,3-f][1,3]diazepin-9-yl)piperidin-4-ol] | M (M (Moderate permeability)”: 1≤A2B (B2A)≤5) | I (I (Intermediate Cl)”: 6.3≤Hep Cl (mL/min/kg)≤14.7)
3 | L (L (Likely)”: ER≥2.5) | H (H (High permeability)”: A2B (B2A)>5) | < 1 | Cc1n[nH]c2c1N=C(c1c(F)cccc1F)Nc1c-2cc(N2CCN(S(C)(=O)=O)CC2)nc1C [Example 44, 5-(2,6-difluorophenyl)-3,7-dimethyl-9-(4-(methylsulfonyl)piperazin-1-yl)-1,6-dihydropyrazolo[4,3-d]pyrido[4,3-f][1,3]diazepine] | L (L (Low permeability)”: A2B (B2A)<1) | L (L (Low Cl)”: Hep Cl (mL/min/kg)<6.3)
4 | L (L (Likely)”: ER≥2.5) | H (H (High permeability)”: A2B (B2A)>5) | < 1 | Cc1nc(N2CCC[C@@H](C#N)C2)cc2c1NC(c1c(F)cccc1F)=Nc1cn[nH]c1-2 [Example 47, (R)-1-(5-(2,6-difluorophenyl)-7-methyl-1,6-dihydropyrazolo[4,3-d]pyrido[4,3-f][1,3]diazepin-9-y1)piperidine-3-carbonitrile] | M (M (Moderate permeability)”: 1≤A2B (B2A)≤5) | H (H (High Cl)”: Hep Cl (mL/min/kg)>14.7)
5 | L (L (Likely)”: ER≥2.5) | H (H (High permeability)”: A2B (B2A)>5) | 1 to 100 | Cc1n[nH]c2c1N=C(c1c(F)cccc1F)Nc1cnc(N3CC[C@@H](C#N)C3)cc1-2 [Example 49, (R)-1-(5-(2,6-difluorophenyl)-3-methyl-1,6-dihydropyrazolo[4,3-d]pyrido[4,3-f][1,3]diazepin-9-y1)pyrrolidine-3-carbonitrile] | M (M (Moderate permeability)”: 1≤A2B (B2A)≤5) | I (I (Intermediate Cl)”: 6.3≤Hep Cl (mL/min/kg)≤14.7)
6 | L (L (Likely)”: ER≥2.5) | H (H (High permeability)”: A2B (B2A)>5) | 1 to 100 | Cc1n[nH]c2c1N=C(c1c(F)ccc(CO)c1F)Nc1cnc(N3CCOCC3)cc1-2 [Example 50, (2,4-difluoro-3-(3-methyl-9-morpholino-1,6-dihydropyrazolo[4,3-d]pyrido[4,3-f][1,3]diazepin-5-yl)phenyl)methanol] | L (L (Low permeability)”: A2B (B2A)<1) | L (L (Low Cl)”: Hep Cl (mL/min/kg)<6.3)
7 | L (L (Likely)”: ER≥2.5) | H (H (High permeability)”: A2B (B2A)>5) | 1 to 100 | Cc1cc(F)c(C2=Nc3cn[nH]c3-c3cc(N4CCOCC4)ncc3N2)c(F)c1 [Example 51, 4-(5-(2,6-difluoro-4-methylphenyl)-1,6-dihydropyrazolo[4,3-d]pyrido[4,3-f][1,3]diazepin-9-yl)morpholine] | H (H (High permeability)”: A2B (B2A)>5) | I (I (Intermediate Cl)”: 6.3≤Hep Cl (mL/min/kg)≤14.7)
8 | L (L (Likely)”: ER≥2.5) | H (H (High permeability)”: A2B (B2A)>5) | < 1 | N#C[C@@H]1CCCN(c2cc3c(cn2)NC(c2c(F)cccc2F)=Nc2c(Cl)n[nH]c2-3)C1 [Example 52, (R)-1-(3-chloro-5-(2,6-difluorophenyl)-1,6-dihydropyrazolo[4,3-d]pyrido[4,3-f][1,3]diazepin-9-y1)piperidine-3-carbonitrile] | M (M (Moderate permeability)”: 1≤A2B (B2A)≤5) | I (I (Intermediate Cl)”: 6.3≤Hep Cl (mL/min/kg)≤14.7)
9 | L (L (Likely)”: ER≥2.5) | H (H (High permeability)”: A2B (B2A)>5) | < 1 | Fc1cccc(F)c1C1=Nc2c(Cl)n[nH]c2-c2cc(N3CC4CCC(C3)O4)ncc2N1 [Example 53, 3-(3-chloro-5-(2,6-difluorophenyl)-1,6-dihydropyrazolo[4,3-d]pyrido[4,3-f][1,3]diazepin-9-yl)-8-oxa-3-azabicyclo[3.2.1]octane] | M (M (Moderate permeability)”: 1≤A2B (B2A)≤5) | I (I (Intermediate Cl)”: 6.3≤Hep Cl (mL/min/kg)≤14.7)
